Results on 17 compounds are retold here after ChEMBL document CHEMBL1151544, “Biarylcarboxamide inhibitors of phosphodiesterase IV and tumor necrosis factor-” (Bioorg Med Chem Lett, 1997).

Experiment [1] is described as follows: Ability to block the release of TNF-alpha in human monocytes. The format is functional, cell-based.
The species entered for experiment [2] is Homo sapiens. Description: Ability to block the release of TNF-alpha in human whole blood. The format is functional.
Experiment [3] deals with U-937. Description: Ability to elevate intracellular levels of cAMP in human U937 cells. The format is functional, cell-based.
Experiment [4] has as its target Phosphodiesterase 4 (Homo sapiens, UniProt P27815+Q08499+Q07343+Q08493). Description: Tested for its ability to inhibit the hydrolysis of cAMP by human monocyte cytosol phosphodiesterase. The format is protein assay.
Experiment [5] deals with Mus musculus. As to the kind of experiment: Inhibition of LPS stimulated TNF-alpha release in mice at 1 mg/kg. The format is functional.
The subject of experiment [6] is Mus musculus. Description: Inhibition of LPS stimulated TNF-alpha release in mice at 10 mg/kg. The format is functional.

A word on the IC50: it is the concentration at which inhibition is half-maximal. Turning to `COc1ccc(-c2ccc(C(=O)O)cc2)cc1O[C@H]1CC2CCC1C2` (stereo not given in full), the IC50 in experiment [1] amounted to 0.14 µM.
On to `COc1ccc(-c2ccc(C(N)=O)nc2)cc1OC1Cc2ccccc2C1`, for which the midpoint of inhibition in experiment [1], the IC50, lay at 0.12 µM.
Take `COc1ccc(-c2ccc(C(N)=O)cc2)cc1OC1Cc2ccccc2C1`: the IC50 in experiment [1] was 0.32 µM.
As for `COc1ccc(-c2ccc(C(N)=O)nc2)cc1O[C@H]1CC2CCC1C2` (stereo not given in full), the IC50 in experiment [2] was 0.14 µM; in experiment [3], 0.049 µM; in experiment [4], 1.07 µM; in experiment [1], 0.009 µM.
As for `COc1ccc(-c2ccc(C(N)=O)nc2)cc1OCCCc1ccccc1`, in experiment [1], the 50% inhibitory concentration (IC50) stood at 2.31 µM.
For `COc1ccc(-c2ccc(C(N)=O)cc2)cc1O[C@H]1CC2CCC1C2` (stereo not given in full), the IC50 in experiment [2] was determined as 0.18 µM; in experiment [3], 0.022 µM; in experiment [4], 3.61 µM; in experiment [1] it was 0.024 µM.
The inhibition in vivo is the relative decrease from the control value, in per cent. Lower therefore signals little suppression. In the case of `COc1ccc(-c2ccc(C(N)=O)nc2)cc1OC1CCCC1`, the IC50 in experiment [2] came to 0.18 µM; in experiment [3], 0.046 µM; in experiment [4] it was 0.34 µM; in experiment [1] it was 0.037 µM. In experiment [5], the inhibition in vivo at 1 mg/kg was found to be 65.2%.
In experiment [1], `COc1ccc(-c2ccc(C(N)=O)c(Cl)c2)cc1OC1CCCC1` gave an IC50 of 0.082 µM. This lies in the double-digit nanomolar range.
The same measure, in the same setting: the same measure for `COc1ccc(-c2ccc(C(N)=O)c(C(F)(F)F)c2)cc1OC1CCCC1`: 1.17 µM.
Compound `COc1ccc(-c2ccc(C(N)=O)c(C)c2)cc1OC1CCCC1` came in with an IC50 in experiment [1] of 0.19 µM.
In experiment [1], `COc1ccc(-c2ncc(C(N)=O)cc2Cl)cc1OC1CCCC1` gave an IC50 of 0.36 µM. This IC50 lies about 1.9-fold higher than the previous one.
With `COc1ccc(-c2ccc(C(N)=O)cc2Cl)cc1OC1CCCC1`, in experiment [1], the IC50 stood at 0.26 µM.
With `COc1ccc(-c2ccc(C(N)=O)cn2)cc1OC1CCCC1`, the IC50 in experiment [1] worked out at 0.08 µM.
Consider `COc1ccc(-c2ccc(C(N)=O)cc2)cc1OC1CCCC1`, for which the IC50 was found to be 0.45 µM in experiment [2], 0.081 µM in experiment [3], 5.91 µM in experiment [4] and 0.026 µM in experiment [1].
Consider `COc1ccc(C2CNC(=O)C2)cc1OC1CCCC1` (stereo not given) [ROLIPRAM], for which the half-inhibitory concentration (IC50) in experiment [3] is 1.23 µM; in experiment [1], 0.31 µM. This compound also had an inhibition in vivo at 1 mg/kg in experiment [5] of 68%.
As to `COc1ccc(-c2ccc(C(N)=O)nc2)cc1OCCc1ccccc1`, in experiment [1], the midpoint of inhibition, the IC50, lay at 0.18 µM.
Consider `COc1ccc([C@]2(C#N)CC[C@@H](C(=O)O)CC2)cc1OC1CCCC1` [CILOMILAST], for which the IC50 in experiment [2] came to 6.12 µM; in experiment [3] it was 3.63 µM; in experiment [1] it was 0.29 µM. Moreover, the inhibition in vivo at 10 mg/kg in experiment [6] came to 59.4%.
